Assay results reported in patent publication US20120323164A1, “PHOTODYNAMIC THERAPY WITH PHTHALOCYANINES AND RADICAL SOURCES” (Case Western Reserve University, priority 2011, published 2012).
“And” between values parts separate entries of the source, which are not always exact repeats. Identical values can stand only once.

What was measured:
[1] = Photodecomposition of Al and Si phthalocyanines in toluene in the presence of squalene under white light; format: physicochemical; settings: toluene ~9 μM, squalene 1:1000 mole ratio, white light 1.2 kJ/s/m^2, air
Procedure: The beam intensity was checked before each measurement.
Solutions for the photodecomposition experiments were prepared as follows.

[2] = Photodecomposition of phthalocyanines in toluene under white light, no added radical source; settings: for photostability (in words): white light, toluene
Procedure: The distance between the cuvette face and the lamp filament was 30 cm. Determination of the beam intensity at the cuvette face was made with a powermeter (Powermax, pm10, Coherent, Santa Clara, Calif.). The beam intensity was checked before each measurement.
Solutions for the photodecomposition experiments were prepared as follows. […] This assumption was justified on the basis that all of the silicon phthalocyanines studied contained simple, unsubstituted phthalocyanine rings. The extinction coefficients of the aluminum phthalocyanines were assumed to be 2.3×10^5, the extinction coefficient of AlPcOSi(CH3)2(CH2)3N(CH3)2, Pc 1.
The absorbance of the Q band of the solution, A, was determined with a spectrophotometer (Lambda 25, Perkin Elmer, Shelton, Conn.; fused silica cuvettes, 1.00 cm, 3.5 mL, Fisher Scientific). From A, ε, the cuvette path length, b, and Beer's law, the concentration of the solution, c, was determined. The solution was then diluted with toluene to a concentration of 9.2 μM. To verify that this was the concentration of the solution, its absorbance was measured again.
In a typical determination, the solution (3.00 mL) was placed in a cuvette (1.00 cm, 3.5 mL, Fisher Scientific, Pittsburgh, Pa.) and its absorbance was measured with the spectrometer (Lambda 25) before irradiation and at 2, 4, 6 and 8 h.
where A0 is the absorbance of the solution at time 0, and At is the absorbance at time t.

[3] = time 2 h, radiation 86 kJ/mol × 10^−6
[4] = time 4 h, radiation 172 kJ/mol × 10^−6
[5] = time 6 h, radiation 258 kJ/mol × 10^−6
[6] = time 8 h, radiation 344 kJ/mol × 10^−6
[7] = time 0 h, toluene ~9 μM, no added alkene, white light 1.2 kJ/s/m^2
[8] = time 2 h, radiation 86 kJ/mol × 10^−6, toluene ~9 μM, no added alkene, white light 1.2 kJ/s/m^2
[9] = time 4 h, radiation 172 kJ/mol × 10^−6, toluene ~9 μM, no added alkene, white light 1.2 kJ/s/m^2
[10] = time 6 h, radiation 258 kJ/mol × 10^−6, toluene ~9 μM, no added alkene, white light 1.2 kJ/s/m^2
[11] = time 8 h, radiation 344 kJ/mol × 10^−6, toluene ~9 μM, no added alkene, white light 1.2 kJ/s/m^2

Compound | decomp (%) ([1]; time 0 h) | decomp (%) [1, 3] [%] | decomp (%) [1, 4] [%] | decomp (%) [1, 5] [%] | decomp (%) [1, 6] [%] | decomp (%) [2, 7] [%] | decomp (%) [2, 8] | decomp (%) [2, 9] | decomp (%) [2, 10] [%] | decomp (%) [2, 11] [%] | photostability (in words) ([2]; no added alkene) | stability in the dark ([2]; in the dark) | decomp (%) [2] | decomposition rate relative to bis(α-linolenoxy)silicon phthalocyanine [2]
C[SiH2]O[Si]1(O[SiH2]C)n2c3c4ccccc4c2N=C2N=C(N=c4c5ccccc5c(n41)=NC1=NC(=N3)c3ccccc31)c1ccccc12 (stereo not drawn) [Pc 283, SiPc(OSiH2Me)2] | 0 | 24 | 44 | 63 | 77 | – | – | – | – | – | – | – | – | –
CN(C)CCCCCC[Si](C)(C)O[Si]1(O[Si](C)(C)CCCCCCN(C)C)n2c3c4ccccc4c2N=C2N=C(N=c4c5ccccc5c(n41)=NC1=NC(=N3)c3ccccc31)c1ccccc12 [Pc 85, SiPc[OSi(CH3)2(CH2)6N(CH3)2]2] | – | – | – | – | – | 0 | 5% | 5% | 5 | 5 | – | – | – | –
COCCC[Si](C)(C)O[Si]1(O[Si](C)(C)CCCOC)n2c3c4ccccc4c2N=C2N=C(N=c4c5ccccc5c(n41)=NC1=NC(=N3)c3ccccc31)c1ccccc12 [Pc 92, SiPc[OSi(CH3)2(CH2)3OCH3]2] | – | – | – | – | – | 0 | 1% | 1% | 1 | 1 | – | – | – | –
CCCCCC[Si](CCCCCC)(CCCCCC)[O][Al]1[n]2c3c4ccccc4c2N=c2c4ccccc4c([n]21)=NC1=NC(=NC2=NC(=N3)c3ccccc32)c2ccccc21 [Pc 286, AlPcOSiHx3] | 0 | 10 | 17 | 23 | 29 | – | – | – | – | – | – | – | – | –
CCCCCC[Si](CCCCCC)(CCCCCC)O[Si]1(O[Si](CCCCCC)(CCCCCC)CCCCCC)n2c3c4ccccc4c2N=C2N=C(N=c4c5ccccc5c(n41)=NC1=NC(=N3)c3ccccc31)c1ccccc12 [Pc 162, SiPc(OSiHx3)2] | 0 | 9 | 14 | 20 | 26 | – | – | – | – | – | – | – | – | –
C[Si](C)(C)O[Si]1(O[Si](C)(C)C)n2c3c4ccccc4c2N=C2N=C(N=c4c5ccccc5c(n41)=NC1=NC(=N3)c3ccccc31)c1ccccc12 [Pc 280, SiPc(OSiMe3)2] | 0 | 11 | 19 | 27 | 36 | – | – | – | – | – | – | – | – | –
CN(C)CCC[Si](C)(C)O[Si]1(O)n2c3c4ccccc4c2N=C2N=C(N=c4c5ccccc5c(n41)=NC1=NC(=N3)c3ccccc31)c1ccccc12 (stereo not drawn) [Pc 4, HOSiPcOSi(CH3)2(CH2)3N(CH3)2] | 0 | 57 | 81 | 92 | 96 | 0 | 11% | 12% | 12 | 13 | – | – | – | –
CC1=C(/C=C/C(C)=C/C=C/C(C)=C/C(=O)O[Si]2(OC(=O)/C=C(C)/C=C/C=C(C)/C=C/C3=C(C)CCCC3(C)C)n3c4c5ccccc5c3N=C3N=C(N=c5c6ccccc6c(n52)=NC2=NC(=N4)c4ccccc42)c2ccccc23)C(C)(C)CCC1 (stereo not drawn) [Pc 301, SiPc[OC(O)(CH═C(CH3)CH═CH)2C6H6(CH3)3]2] | – | – | – | – | – | 0 | 19% | 25% | 28 | 32 | – | – | – | –
CCC[Si](CCC)(CCC)O[Si]1(O[Si](CCC)(CCC)CCC)n2c3c4ccccc4c2N=C2N=C(N=c4c5ccccc5c(n41)=NC1=NC(=N3)c3ccccc31)c1ccccc12 [Pc 282, SiPc(OSiPr3)2] | 0 | 3 | 4 | 6 | 7 | – | – | – | – | – | – | – | – | –
C=CC[Si](C)(C)O[Si]1(O[Si](C)(C)CC=C)n2c3c4ccccc4c2N=C2N=C(N=c4c5ccccc5c(n41)=NC1=NC(=N3)c3ccccc31)c1ccccc12 [Pc 271, SiPc[OSi(CH3)2CH2CH═CH2]2] | – | – | – | – | – | 0 | 6% | 10% | 14 | 16 | – | – | – | –
C[Si](C)(CCCI)O[Si]1(O)n2c3c4ccccc4c2N=C2N=C(N=c4c5ccccc5c(n41)=NC1=NC(=N3)c3ccccc31)c1ccccc12 (stereo not drawn) [Pc 58, SiPc[OSiMe2(CH2)3I](OH)] | 0 | 12 | 23 | 34 | 44 | – | – | – | – | – | – | – | – | –
C[Si](C)(CCCN(c1ccccc1)c1ccccc1)O[Si]1(O[Si](C)(C)CCCN(c2ccccc2)c2ccccc2)n2c3c4ccccc4c2N=C2N=C(N=c4c5ccccc5c(n41)=NC1=NC(=N3)c3ccccc31)c1ccccc12 [Pc 159, SiPc[OSi(CH3)2(CH2)3N(C6H5)2]2] | – | – | – | – | – | 0 | 0% | 0% | 0 | 1 | quite stable under light | – | – | –
CCCCCCCCCCCCCCCCCC(=O)O.CCCCCCCCCCCCCCCCCC(=O)O.CN(C)CCC[Si](C)(C)O[Si]1(O[Si](C)(C)CCCN(C)C)n2c3c4ccccc4c2N=C2N=C(N=c4c5ccccc5c(n41)=NC1=NC(=N3)c3ccccc31)c1ccccc12 [Pc 287, SiPc[OSi(CH3)2(CH2)3NH(CH3)2]2^2+[OC(O)(CH2)17CH3]2^−] | – | – | – | – | – | 0 | 19% | 20% | 21 | 21 | – | – | – | –
SiPc[OCH2CH═C(CH3)(CH2)2CH═C(CH3)2]2 [Pc 302] | – | – | – | – | – | 0 | 19% | 60% | 74 | 81 | – | stable in the dark | – | –
SiPc[OC(O)(CH2)6(CH2CH═CH)3CH2CH3]z [Pc 297] | – | – | – | – | – | – | – | – | – | – | – | – | 0 3 5 6 9% | –
SiPc[OC(O)(CH2)3(CH2CH═CH)3(CH2)4CH3]2 [Pc 298] | – | – | – | – | – | – | – | – | – | – | – | – | 0 12 21 27 33% | approximately twice as fast
C=CCCCC[Si](C)(C)O[Si]1(O[Si](C)(C)CCCCC=C)n2c3c4ccccc4c2N=C2N=C(N=c4c5ccccc5c(n41)=NC1=NC(=N3)c3ccccc31)c1ccccc12 [Pc 270, SiPc[OSi(CH3)2(CH2)4CH═CH2]2] | – | – | – | – | – | 0 | 1% | 2% | 2 | 3 | – | – | – | –
CSCCC[Si](C)(C)O[Si]1(O[Si](C)(C)CCCSC)n2c3c4ccccc4c2N=C2N=C(N=c4c5ccccc5c(n41)=NC1=NC(=N3)c3ccccc31)c1ccccc12 [Pc 97, SiPc[OSi(CH3)2(CH2)3SCH3]2] | – | – | – | – | – | 0 | 41% | 42% | 43 | 44 | – | – | – | –
CC[Si](CC)(CC)O[Si]1(O[Si](CC)(CC)CC)n2c3c4ccccc4c2N=C2N=C(N=c4c5ccccc5c(n41)=NC1=NC(=N3)c3ccccc31)c1ccccc12 [Pc 281, SiPc(OSiEt3)2] | 0 | 5 | 9 | 13 | 17 | – | – | – | – | – | – | – | – | –
CCC[Si](CCC)(CCC)[O][Al]1[n]2c3c4ccccc4c2N=C2N=C(N=c4c5ccccc5c([n]41)=NC1=NC(=N3)c3ccccc31)c1ccccc12 [Pc 285, AlPcOSiPr3] | 0 | 8 | 16 | 23 | 30 | – | – | – | – | – | – | – | – | –
CCCCCC[Si](CCCCCC)(CCCCCC)O[Si]1(O)n2c3c4ccccc4c2N=C2N=C(N=c4c5ccccc5c(n41)=NC1=NC(=N3)c3ccccc31)c1ccccc12 (stereo not drawn) [Pc 252, SiPc(OSiHx3)(OH)] | 0 | 16 | 26 | 34 | 42 | – | – | – | – | – | – | – | – | –
CN(C)CCC[Si](C)(C)O[Si]1(O[Si](C)(C)CCCN(C)C)n2c3c4ccccc4c2N=C2N=C(N=c4c5ccccc5c(n41)=NC1=NC(=N3)c3ccccc31)c1ccccc12 [Pc 12, SiPc[OSi(CH3)2(CH2)3N(CH3)2]2] | – | – | – | – | – | 0 | 19% and 18% | 20% and 19% | 21 | 21 | – | – | – | –
SiPc[OC(O)(CH2)16CH3]2 [Pc 294] | – | – | – | – | – | 0 | 1% | 1% | 1 | 2 | – | – | – | –
CCCCCCCC[Si](CCCCCCCC)(CCCCCCCC)O[Si]1(O[Si](CCCCCCCC)(CCCCCCCC)CCCCCCCC)n2c3c4ccccc4c2N=C2N=C(N=c4c5ccccc5c(n41)=NC1=NC(=N3)c3ccccc31)c1ccccc12 [Pc 308, SiPc(OSiOct3)2] | 0 | 10 | 15 | 21 | 26 | – | – | – | – | – | – | – | – | –
AlPcOSi(CH3)2(CH2)3N(CH3)2 [Pc 1] | – | – | – | – | – | 0 | 27% | 39% | 46 | 49 | low photostability | – | – | –
